Experimental data reported in patent publication US11117900B2 (Vertex Pharmaceuticals Incorporated, priority 2012, dated 2021).

What follows are molecules tested against full-length ATR (Homo sapiens (Human), UniProt Q13535) (assay: ATR inhibition assay (radioactive-phosphate incorporation)). Settings: Ki(app), 5 nM full-length ATR, 10 μM ATP, 25° C.
Type: biochemical
Method: Compounds were screened for their ability to inhibit ATR kinase using a radioactive-phosphate incorporation assay. Assays were carried out in a mixture of 50 mM Tris/HCl (pH 7.5), 10 mM MgCl2 and 1 mM DTT. Final substrate concentrations were 10 μM [γ-33P]ATP (3 mCi 33P ATP/mmol ATP, Perkin Elmer) and 800 μM target peptide ([…]) (SEQ ID NO:1).
Assays were carried out at 25° C. in the presence of 5 nM full-length ATR. An assay stock buffer solution was prepared containing all of the reagents listed above, with the exception of ATP and the test compound of interest. 13.5 μL of the stock solution was placed in a 96 well plate followed by addition of 2 μL of DMSO stock containing serial dilutions of the test compound (typically starting from a final concentration of 15 μM with 3-fold serial dilutions) in duplicate (final DMSO concentration 7%). The plate was pre-incubated for 10 minutes at 25° C. and the reaction initiated by addition of 15 μL [γ-33P]ATP (final concentration 10 μM).
The reaction was stopped after 24 hours by the addition of […] phosphoric acid containing 2 mM ATP. […]
After removing mean background values for all of the data points, Ki(app) data were calculated from non-linear regression analysis of the initial rate data using the Prism software package (GraphPad Prism version 3.0 cx for Macintosh, GraphPad Software, San Diego Calif., USA).

Sequence of full-length ATR (Q13535 whole entry): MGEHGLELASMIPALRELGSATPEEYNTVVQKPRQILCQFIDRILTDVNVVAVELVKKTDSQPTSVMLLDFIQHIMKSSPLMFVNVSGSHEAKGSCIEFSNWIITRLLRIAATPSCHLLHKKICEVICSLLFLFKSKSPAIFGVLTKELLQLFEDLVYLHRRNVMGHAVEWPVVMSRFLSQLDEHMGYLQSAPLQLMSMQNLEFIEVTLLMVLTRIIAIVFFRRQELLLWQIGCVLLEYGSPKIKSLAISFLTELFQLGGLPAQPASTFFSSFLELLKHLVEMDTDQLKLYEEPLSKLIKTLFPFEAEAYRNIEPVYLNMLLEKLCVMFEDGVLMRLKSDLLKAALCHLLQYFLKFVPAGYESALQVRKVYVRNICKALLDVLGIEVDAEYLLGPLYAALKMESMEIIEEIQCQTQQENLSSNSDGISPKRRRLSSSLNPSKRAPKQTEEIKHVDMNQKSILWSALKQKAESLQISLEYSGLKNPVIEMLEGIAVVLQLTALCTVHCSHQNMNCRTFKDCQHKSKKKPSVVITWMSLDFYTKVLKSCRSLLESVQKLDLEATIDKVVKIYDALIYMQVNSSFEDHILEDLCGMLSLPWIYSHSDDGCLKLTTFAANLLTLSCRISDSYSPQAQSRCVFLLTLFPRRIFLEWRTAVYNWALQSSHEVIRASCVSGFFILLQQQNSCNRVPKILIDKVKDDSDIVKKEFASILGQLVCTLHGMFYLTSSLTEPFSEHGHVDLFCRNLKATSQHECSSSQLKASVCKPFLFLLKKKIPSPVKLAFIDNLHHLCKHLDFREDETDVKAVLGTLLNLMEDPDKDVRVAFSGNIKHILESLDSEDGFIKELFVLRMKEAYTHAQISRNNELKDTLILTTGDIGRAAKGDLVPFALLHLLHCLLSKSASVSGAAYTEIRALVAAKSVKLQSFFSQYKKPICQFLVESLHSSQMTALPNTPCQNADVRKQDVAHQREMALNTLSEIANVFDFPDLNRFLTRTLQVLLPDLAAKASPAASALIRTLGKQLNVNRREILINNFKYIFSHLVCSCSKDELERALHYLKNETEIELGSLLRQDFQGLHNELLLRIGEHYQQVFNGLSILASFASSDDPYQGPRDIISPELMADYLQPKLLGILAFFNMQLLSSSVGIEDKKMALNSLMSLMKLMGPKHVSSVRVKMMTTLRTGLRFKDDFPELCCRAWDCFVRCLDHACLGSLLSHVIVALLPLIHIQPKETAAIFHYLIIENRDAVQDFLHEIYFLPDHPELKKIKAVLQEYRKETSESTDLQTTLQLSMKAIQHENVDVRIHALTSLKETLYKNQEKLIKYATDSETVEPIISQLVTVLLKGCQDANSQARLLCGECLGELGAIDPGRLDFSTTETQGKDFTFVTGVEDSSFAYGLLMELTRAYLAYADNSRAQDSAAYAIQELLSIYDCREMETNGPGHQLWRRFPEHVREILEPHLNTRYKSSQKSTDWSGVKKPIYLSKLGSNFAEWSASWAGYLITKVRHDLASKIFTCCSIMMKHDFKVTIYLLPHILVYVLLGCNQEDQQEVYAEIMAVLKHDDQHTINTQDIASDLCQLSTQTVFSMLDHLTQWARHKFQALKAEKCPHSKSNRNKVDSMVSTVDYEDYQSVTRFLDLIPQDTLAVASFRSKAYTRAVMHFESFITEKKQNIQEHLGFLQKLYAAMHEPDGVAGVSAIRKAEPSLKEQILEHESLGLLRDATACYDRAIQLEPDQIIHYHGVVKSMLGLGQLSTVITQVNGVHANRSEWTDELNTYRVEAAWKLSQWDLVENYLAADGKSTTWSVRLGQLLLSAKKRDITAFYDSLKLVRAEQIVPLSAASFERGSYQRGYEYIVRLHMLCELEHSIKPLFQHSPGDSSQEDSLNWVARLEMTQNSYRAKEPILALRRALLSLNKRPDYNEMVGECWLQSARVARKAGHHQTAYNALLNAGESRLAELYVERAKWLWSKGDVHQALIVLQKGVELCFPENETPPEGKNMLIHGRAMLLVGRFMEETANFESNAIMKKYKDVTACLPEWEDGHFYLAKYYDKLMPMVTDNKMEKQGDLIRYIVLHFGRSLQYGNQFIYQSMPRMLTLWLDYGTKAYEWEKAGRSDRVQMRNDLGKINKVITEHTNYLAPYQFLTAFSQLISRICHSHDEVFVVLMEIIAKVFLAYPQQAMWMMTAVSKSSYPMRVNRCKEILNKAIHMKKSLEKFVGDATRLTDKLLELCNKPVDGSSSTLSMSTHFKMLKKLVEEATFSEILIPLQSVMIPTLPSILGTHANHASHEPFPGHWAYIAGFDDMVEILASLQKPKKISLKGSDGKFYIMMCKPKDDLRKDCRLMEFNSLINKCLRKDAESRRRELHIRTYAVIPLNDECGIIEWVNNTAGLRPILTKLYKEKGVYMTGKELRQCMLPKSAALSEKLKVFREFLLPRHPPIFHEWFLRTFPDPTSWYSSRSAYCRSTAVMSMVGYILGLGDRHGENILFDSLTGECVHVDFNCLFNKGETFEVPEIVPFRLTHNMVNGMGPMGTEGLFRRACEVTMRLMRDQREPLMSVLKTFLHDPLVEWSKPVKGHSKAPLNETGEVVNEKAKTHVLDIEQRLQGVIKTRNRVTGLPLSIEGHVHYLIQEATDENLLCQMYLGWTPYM

Compound | Ki [nM]
Nc1nn2cc(F)cnc2c1C(=O)Nc1cnccc1OC1CC[S+]([O-])CC1 (centres unmarked) [I-O-44, 2-amino-6-fluoro-N-(4-((1-oxidotetrahydro-2H-thiopyran-4-yl)oxy)pyridin-3-yl)pyrazolo[1,5-a]pyrimidine-3-carboxamide] | 10 to 1000

These molecules were tested on HCT116 colorectal cancer cells (assay: Cisplatin sensitization assay (96 h MTS cell viability)). Settings: Cisplatin sensitization value.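 Also: compound concentration needed to lower the IC50 of Cisplatin alone by a set fold.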
Type: cell-based
Procedure, shortened: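 The MTS viability read, after 1 h with reagent, followed 96 h of co-treatment at 37° C. in 5% CO2. Both compound and cisplatin were titrated 2-fold from a 10 μM top final concentration in a complete concentration matrix on HCT116 cells. Scores +++/++/+ reflect cisplatin sensitization value ranges.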

Compound | Cisplatin Sensitization Assay
Nc1nn2cc(F)cnc2c1C(=O)Nc1cnccc1OC1CC[S+]([O-])CC1 (centres unmarked) [I-O-44, 2-amino-6-fluoro-N-(4-((1-oxidotetrahydro-2H-thiopyran-4-yl)oxy)pyridin-3-yl)pyrazolo[1,5-a]pyrimidine-3-carboxamide] | ++ (Compounds with a Cisplatin sensitization value >0.02 μM but <0.2 μM are marked with “++.”)
N#CCc1cnc2c(C(=O)Nc3cnccc3O[C@@H]3CCNC3)c(N)nn2c1 [I-O-87, (R)-2-amino-6-(cyanomethyl)-N-(4-(pyrrolidin-3-yloxy)pyridin-3-yl)pyrazolo[1,5-a]pyrimidine-3-carboxamide] | ++ (Compounds with a Cisplatin sensitization value >0.02 μM but <0.2 μM are marked with “++.”)
CC(C)(C)Oc1ccncc1NC(=O)c1c(N)nn2cc(F)cnc12 [I-O-88, 2-amino-N-(4-(tert-butoxy)pyridin-3-yl)-6-fluoropyrazolo[1,5-a]pyrimidine-3-carboxamide] | +++ (Compounds with a Cisplatin sensitization value of <0.02 μM are marked with “+++.”)
CN1CCC(Oc2c(F)cncc2NC(=O)c2c(N)nn3cc(F)cnc23)CC1 [I-O-89, 2-amino-6-fluoro-N-(5-fluoro-4-((1-methylpiperidin-4-yl)oxy)pyridin-3-yl)pyrazolo[1,5-a]pyrimidine-3-carboxamide] | ++ (Compounds with a Cisplatin sensitization value >0.02 μM but <0.2 μM are marked with “++.”)
CNc1cc(OC)c(NC(=O)c2c(N)nn3cc(F)cnc23)cn1 [I-O-90, 2-amino-6-fluoro-N-(4-methoxy-6-(methylamino)pyridin-3-yl)pyrazolo[1,5-a]pyrimidine-3-carboxamide] | + (Compounds with a Cisplatin sensitization value >0.2 μM but <5 μM are marked with “+.”)
Nc1nn2cc(F)cnc2c1C(=O)Nc1cncc(F)c1OC1CCN(C2COC2)CC1 [I-O-91, 2-amino-6-fluoro-N-(5-fluoro-4-((1-(oxetan-3-yl)piperidin-4-yl)oxy)pyridin-3-yl)pyrazolo[1,5-a]pyrimidine-3-carboxamide] | ++ (Compounds with a Cisplatin sensitization value >0.02 μM but <0.2 μM are marked with “++.”)
Nc1nn2cc(F)cnc2c1C(=O)Nc1cnccc1OC1COC1 [I-O-92, 2-amino-6-fluoro-N-(4-(oxetan-3-yloxy)pyridin-3-yl)pyrazolo[1,5-a]pyrimidine-3-carboxamide] | +++ (Compounds with a Cisplatin sensitization value of <0.02 μM are marked with “+++.”)
